Molecular target: Recombinant human c-Src (Homo sapiens (Human), UniProt P12931)
Test: Src kinase inhibition in vitro (luciferase-based residual ATP, KinaseGlo)
Type: biochemical
Conditions: ATP 3 μM, PTK2 substrate, 90 minutes at room temperature
Method: (§1) The ability of compounds of the present invention to inhibit the activity of three groups of kinases was tested. Kinases tested included the src family (primarily src and yes), some angiogenic growth factor receptors (Fgfr1, Vegfr, and Pdgfrβ) and the ephrin, EphB4. All kinase reactions were conducted in 96-well plates with a final reaction volume of 50 ul.
After reacting for about 90 minutes at room temperature, residual ATP was determined using a luciferase-based assay (KinaseGlo, Promega Corp.) as a measure of kinase activity. Data from four wells were then averaged and used to determine IC50 values for the test compounds (Prism software package, GraphPad Software, San Diego Calif.).
(§2) The test results for inhibition of Src kinase are presented in Table 1, and the test results for inhibition of some other kinases (i.e., Yes, EphB4, and Pdgfrβ) are presented in Table 2.

Recombinant human c-Src, sequence (P12931 whole entry, looked up): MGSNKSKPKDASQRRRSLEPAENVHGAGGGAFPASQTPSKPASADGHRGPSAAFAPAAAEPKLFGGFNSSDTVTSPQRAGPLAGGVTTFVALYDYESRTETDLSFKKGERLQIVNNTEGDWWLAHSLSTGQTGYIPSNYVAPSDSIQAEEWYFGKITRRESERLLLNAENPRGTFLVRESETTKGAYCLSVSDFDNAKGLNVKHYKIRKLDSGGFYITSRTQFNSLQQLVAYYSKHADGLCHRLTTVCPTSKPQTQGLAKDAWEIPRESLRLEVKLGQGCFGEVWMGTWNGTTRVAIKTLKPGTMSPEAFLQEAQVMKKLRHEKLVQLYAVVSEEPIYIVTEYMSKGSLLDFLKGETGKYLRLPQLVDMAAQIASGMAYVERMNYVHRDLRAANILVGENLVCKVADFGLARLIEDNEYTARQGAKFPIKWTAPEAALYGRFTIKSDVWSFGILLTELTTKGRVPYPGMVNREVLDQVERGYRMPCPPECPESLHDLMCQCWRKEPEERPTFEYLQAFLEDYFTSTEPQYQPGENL

SMILES | IC50 [µM]
COc1ccccc1Nc1nnc2cc(-c3c(C)cccc3C)cc(C)c2n1 [(2-methoxy-phenyl)-[7-(2,6-dimethyl-phenyl)-5-methyl-benzo[1,2,4]triazin-3-yl]-amine] | > 100
CCCCc1ccc(Nc2nnc3cc(-c4c(C)cccc4C)cc(C)c3n2)cc1 [(4-butyl-phenyl)-[7-(2,6-dimethyl-phenyl)-5-methyl-benzo[1,2,4]triazin-3-yl]-amine] | > 100
Cc1cccc(C)c1-c1cc(C)c2nc(Nc3ccccn3)nnc2c1 [[7-(2,6-dimethyl-phenyl)-5-methyl-benzo[1,2,4]triazin-3-yl]-pyridin-2-yl-amine] | > 10
Cc1cccc(C)c1-c1cc(C)c2nc(Nc3cccc4cccnc34)nnc2c1 [[7-(2,6-dimethyl-phenyl)-5-methyl-benzo[1,2,4]triazin-3-yl]-quinolin-8-yl-amine] | > 10
Cc1cc2nc(Nc3ccc(S(=O)(=O)NCCN4CCCC4)cc3)nnc2cc1Br [[7-Bromo-6-methyl-benzo[1,2,4]triazin-3-ylamino]-N-(2-pyrrolidin-1-yl-ethyl)-benzene-4-sulfonamide] | > 10

Continued, values first:

IC50 [µM] | SMILES
> 10 | Cc1ccc(Nc2nnc3cc(-c4c(C)cccc4C)cc(C)c3n2)c(C)c1 [(2,4-dimethyl-phenyl)-[7-(2,6-dimethyl-phenyl)-5-methyl-benzo[1,2,4]triazin-3-yl]-amine]
> 10 | Cc1ccc(C)c(Nc2nnc3cc(-c4c(C)cccc4C)cc(C)c3n2)c1 [(2,5-dimethyl-phenyl)-[7-(2,6-dimethyl-phenyl)-5-methyl-benzo[1,2,4]triazin-3-yl]-amine]
0.134 | Cc1cccc(C)c1-c1cc(C)c2nc(Nc3cccc(Cl)c3)nnc2c1 [(3-chloro-phenyl)-[7-(2,6-dimethyl-phenyl)-5-methyl-benzo[1,2,4]triazin-3-yl]-amine]
0.108 | CCOc1ccc(Nc2nnc3cc(-c4c(C)cccc4C)cc(C)c3n2)cc1 [(4-ethoxy-phenyl)-[7-(2,6-dimethyl-phenyl)-5-methyl-benzo[1,2,4]triazin-3-yl]-amine]
0.14 | COc1ccc(Nc2nnc3cc(-c4c(C)cccc4C)cc(C)c3n2)cc1 [(4-methoxy-phenyl)-[7-(2,6-dimethyl-phenyl)-5-methyl-benzo[1,2,4]triazin-3-yl]-amine]
> 10 | Cc1cc(N2CCCCC2)cc2nnc(Nc3cccnc3)nc12 [(5-methyl-7-piperidin-1-yl-benzo[1,2,4]triazin-3-yl)-pyridin-3-yl-amine]
1.8 | Cc1cc(-c2ccccn2)cc2nnc(Nc3ccc(OCCN4CCCC4)cc3)nc12 [(5-methyl-7-pyridin-2-yl-benzo[1,2,4]triazin-3-yl)-[4-(2-pyrrolidin-1-yl-ethoxy)-phenyl]-amine]
> 10 | Cc1cc(-c2cc(OC(=O)c3ccccc3)ccc2Cl)cc2nnc(Nc3ccc(OCCN4CCCC4)cc3)nc12 [Benzoic acid 4-chloro-3-{5-methyl-3-[4-(2-pyrrolidin-1-yl-ethoxy)-phenylamino]-benzo[1,2,4]triazin-7-yl}-phenyl ester]
> 10 | CC(=O)Nc1nnc2cc(-c3c(C)cccc3C)cc(C)c2n1 [N-[7-(2,6-dimethyl-phenyl)-5-methyl-benzo[1,2,4]triazin-3-yl]-acetamide]
1.8 | Cc1cccc(C)c1-c1cc(C)c2nc(NC(=O)c3ccccc3)nnc2c1 [N-[7-(2,6-dimethyl-phenyl)-5-methyl-benzo[1,2,4]triazin-3-yl]-benzamide]
> 10 | Cc1cc(C)c(-c2cc(C)c3nc(Nc4ccccc4)nnc3c2)c(C)c1 [[5-methyl-7-(2,4,6-trimethyl-phenyl)-benzo[1,2,4]triazin-3-yl]-phenyl-amine]
0.121 | Clc1cccc(Cl)c1-c1ccc2nc(Nc3ccc(OCCN4CCCC4)cc3)nnc2c1 [[7-(2,6-dichloro-phenyl)-benzo[1,2,4]triazin-3-yl]-[4-(2-pyrrolidin-1-yl-ethoxy)-phenyl]-amine]
0.13 | Cc1cccc(C)c1-c1cc2nnc(Nc3ccccc3)nc2c(C)c1C [[7-(2,6-dimethyl-phenyl)-5,6-dimethyl-benzo[1,2,4]triazin-3-yl]-phenyl-amine]
0.0482 | Cc1cccc(C)c1-c1cc(C)c2nc(Nc3cccc(S(=O)(=O)N4CCNCC4)c3)nnc2c1 [[7-(2,6-dimethyl-phenyl)-5-methyl-benzo[1,2,4]triazin-3-yl]-[3-(piperazine-1-sulfonyl)-phenyl]-amine]
0.137 | Cc1cccc(C)c1-c1cc(C)c2nc(Nc3ccc(S(=O)(=O)N4CCN(C)CC4)cc3)nnc2c1 [[7-(2,6-dimethyl-phenyl)-5-methyl-benzo[1,2,4]triazin-3-yl]-[4-(4-methyl-piperazine-1-sulfonyl)-phenyl]-amine]
0.036 | Cc1cccc(C)c1-c1cc(C)c2nc(Nc3ccncc3)nnc2c1 [[7-(2,6-dimethyl-phenyl)-5-methyl-benzo[1,2,4]triazin-3-yl]-pyridine-4-yl-amine]
0.0126 | Cc1cccc(C)c1-c1cc(C)c2nc(Nc3ccc(OCCCN4CCCC4)cc3)nnc2c1 [[7-(2,6-dimethyl-phenyl)-5-methyl-benzo[1,2,4]triazin-3-yl]-{4-(3-pyrrolidin-1-yl-propoxy)-phenyl]-amine]
0.0123 | Cc1cc2nc(Nc3ccc(OCCN4CCCC4)cc3)nnc2cc1-c1c(C)cccc1C [[7-(2,6-dimethyl-phenyl)-6-methyl-benzo[1,2,4]triazin-3-yl]-[4-(2-pyrrolidin-1-yl-ethoxy)-phenyl]-amine]
0.015 | Cc1cccc(C)c1-c1ccc2nc(Nc3ccc(OCCN4CCCC4)cc3)nnc2c1 [[7-(2,6-dimethyl-phenyl)-benzo[1,2,4]triazin-3-yl]-[4-(2-pyrrolidin-1-yl-ethoxy)-phenyl]-amine]
0.788 | COc1ccc(Cl)c(-c2cc(C)c3nc(Nc4ccc(OCCN5CCCC5)cc4)nnc3c2)c1 [[7-(2-chloro-5-methoxy-phenyl)-5-methyl-benzo[1,2,4]triazin-3-yl]-[4-(2-pyrrolidin-1-yl-ethoxy)-phenyl]-amine]
0.505 | COc1cccc(Cl)c1-c1cc(C)c2nc(Nc3ccc(OCCN4CCCC4)cc3)nnc2c1 [[7-(2-chloro-6-methoxy-phenyl)-5-methyl-benzo[1,2,4]triazin-3-yl]-[4-(2-pyrrolidin-1-yl-ethoxy)-phenyl]-amine]
0.207 | Cc1noc(C)c1-c1cc(C)c2nc(Nc3ccc(OCCN4CCCC4)cc3)nnc2c1 [[7-(3,5-dimethyl-isoxazol-4-yl)-5-methyl-benzo[1,2,4]triazin-3-yl]-[4-(2-pyrrolidin-1-yl-ethoxy)-phenyl]-amine]
1.2 | COc1ccc(Cl)cc1-c1cc(C)c2nc(Nc3ccc(OCCN4CCCC4)cc3)nnc2c1 [[7-(5-chloro-2-methoxy-phenyl)-5-methyl-benzo[1,2,4]triazin-3-yl]-[4-(2-pyrrolidin-1-yl-ethoxy)-phenyl]-amine]

Molecular target: Pdgfrβ (Homo sapiens (Human), UniProt P09619)
Sequence (P09619 33-1106): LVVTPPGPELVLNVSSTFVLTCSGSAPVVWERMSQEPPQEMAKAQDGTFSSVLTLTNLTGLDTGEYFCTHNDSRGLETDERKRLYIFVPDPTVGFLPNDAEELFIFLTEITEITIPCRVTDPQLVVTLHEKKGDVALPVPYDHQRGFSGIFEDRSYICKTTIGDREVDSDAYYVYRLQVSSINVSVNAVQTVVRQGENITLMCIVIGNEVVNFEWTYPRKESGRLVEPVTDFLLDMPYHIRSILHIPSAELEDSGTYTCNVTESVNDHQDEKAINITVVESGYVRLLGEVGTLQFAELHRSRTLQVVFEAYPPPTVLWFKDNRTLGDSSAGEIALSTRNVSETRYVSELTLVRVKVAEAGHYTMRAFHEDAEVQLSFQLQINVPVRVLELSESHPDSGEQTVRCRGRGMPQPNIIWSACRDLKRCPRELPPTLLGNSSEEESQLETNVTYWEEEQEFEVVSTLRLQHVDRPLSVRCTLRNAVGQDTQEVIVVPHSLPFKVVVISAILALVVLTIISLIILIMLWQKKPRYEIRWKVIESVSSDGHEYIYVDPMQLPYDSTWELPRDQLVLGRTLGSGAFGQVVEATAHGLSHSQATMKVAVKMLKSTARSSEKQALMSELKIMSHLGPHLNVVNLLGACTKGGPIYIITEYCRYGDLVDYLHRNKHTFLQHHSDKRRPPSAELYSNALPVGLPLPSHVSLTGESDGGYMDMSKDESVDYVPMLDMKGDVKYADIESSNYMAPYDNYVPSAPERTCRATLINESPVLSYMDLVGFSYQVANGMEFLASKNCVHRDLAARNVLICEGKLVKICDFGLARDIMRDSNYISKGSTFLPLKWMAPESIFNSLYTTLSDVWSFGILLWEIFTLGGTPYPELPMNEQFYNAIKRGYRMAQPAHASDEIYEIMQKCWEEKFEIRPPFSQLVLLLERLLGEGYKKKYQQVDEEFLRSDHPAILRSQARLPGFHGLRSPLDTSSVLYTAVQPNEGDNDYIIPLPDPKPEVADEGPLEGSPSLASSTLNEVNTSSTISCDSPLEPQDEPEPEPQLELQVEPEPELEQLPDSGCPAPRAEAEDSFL
Test: Pdgfrβ kinase inhibition in vitro (luciferase-based residual ATP)
Type: biochemical
Conditions: 500 nM ATP, PTK2 peptide, 60 minutes at 37 C; read-out: PDGFR IC50
Method: as §1
Pdgfrβ (0.16 ug/well, Panvera/Invitrogen) 500 nM ATP and the PTK2 peptide (700 uM) were combined with compound and reaction buffer as noted above for src. The reaction was incubated for 60 minutes at 37 C, and the residual ATP concentration was determined using the luciferase-based technique also noted above.
as §2

SMILES | IC50 [µM]
Cc1cc(-c2cc(O)ccc2Cl)cc2nnc(Nc3ccc(S(=O)(=O)NCCN4CCCC4)cc3)nc12 | 0.0017
Cc1cc2nc(Nc3ccc(S(=O)(=O)NCCN4CCCC4)cc3)nnc2cc1-c1cc(O)ccc1Cl | 0.0019
Cc1cc(-c2cc(O)ccc2Cl)cc2nnc(Nc3ccc(S(=O)(=O)CCCN4CCCC4)cc3)nc12 | 0.0029
Cc1cc(O)cc(C)c1-c1cc(C)c2nc(Nc3ccc(OCCN4CCCC4)cc3)nnc2c1 | 0.0411
Cc1cccc(C)c1-c1cc(C)c2nc(Nc3nc(C(=O)NCCN4CCCC4)cs3)nnc2c1 [2-[7-(2,6-dimethyl-phenyl)-5-methyl-benzo[1,2,4]triazin-3-ylamino]-thiazole-4-carboxylic acid (2-pyrrolidin-1-yl-ethyl)-amide] | 0.06
Cc1cccc(C)c1-c1cc(C)c2nc(Nc3cccc(S(N)(=O)=O)c3)nnc2c1 [3-[7-(2,6-dimethyl-phenyl)-5-methyl-benzo[1,2,4]triazin-3-ylamino]-benzenesulfonamide] | 0.0163
Cc1cc(-c2cc(O)ccc2Cl)cc2nnc(Nc3cccc(C(=O)NCCN(C)C)c3)nc12 [3-[7-(2-chloro-5-hydroxy-phenyl)-5-methyl-benzo[1,2,4]triazin-3-ylamino]-N-(2-dimethylamino-ethyl)-benzamide] | 0.0053
Cc1cc2nc(Nc3ccc(OCCN4CCCC4)cc3)nnc2cc1-c1cccc(O)c1 [3-{6-methyl-3-[4-(2-pyrrolidin-1-yl-ethoxy)-phenylamino]-benzo[1,2,4]triazin-7-yl}-phenol] | 0.0074
COc1cc2nc(Nc3ccc(S(=O)(=O)NCCN4CCCC4)cc3)nnc2cc1-c1ccccc1C [4-(6-methoxy-7-o-tolyl-benzo[1,2,4]triazin-3-ylamino)-N-(2-pyrrolidin-1-yl-ethyl)-benzenesulfonamide] | 0.0393
Cc1cc(-c2c(Cl)ccc(O)c2Cl)cc2nnc(Nc3ccc(S(=O)(=O)NCCN4CCCC4)cc3)nc12 [4-[7-(2,6-dichloro-3-hydroxy-phenyl)-5-methyl-benzo[1,2,4]triazin-3-ylamino]-N-(2-pyrrolidin-1-yl-ethyl)-benzenesulfonamide] | 0.008
Cc1cc(-c2cc(O)ccc2Cl)cc2nnc(Nc3ccc(S(=O)(=O)N(C)CCN4CCCC4)cc3)nc12 [4-[7-(2-chloro-5-hydroxy-phenyl)-5-methyl-benzo[1,2,4]triazin-3-ylamino]-N-methyl-N-(2-pyrrolidin-1-yl-ethyl)-benzenesulfonamide] | 0.0031
Cc1cc(-c2cc(O)ccc2Cl)cc2nnc(Nc3cccc(N(C)C)c3)nc12 [4-chloro-3-[3-(3-dimethylamino-phenylamino)-5-methyl-benzo[1,2,4]triazin-7-yl]-phenol] | 0.0208
